# Source: the OligoGym collection
# HELM strings list units from the 5' end as sugar, base in round brackets, then linkage (d deoxyribose, r ribose, m 2'-O-methyl, p phosphodiester). Strings are as the collection lists them; they lack the last nucleoside at the 3' end of the tested compound. [moe] = 2'-O-(2-methoxyethyl) (MOE); [sp] = phosphorothioate linkage; [m5C] = 5-methylcytosine
# Target: PRNP
# Assay: mouse, dose not given
# Details: ASO
row,Substance,3 h FOB score
1,RNA1{[moe]([m5C])[sp].[moe](G)p.[moe](T)p.[moe](T)p.[moe]([m5C])[sp].d(A)[sp].d(T)[sp].d([m5C])[sp].d(T)[sp].d(T)[sp].d(A)[sp].d(T)[sp].d(T)[sp].d([m5C])[sp].d([m5C])[sp].[moe]([m5C])p.[moe](A)p.[moe](T)[sp].[moe](T)}$$$$ (last 3' nucleoside missing),1 score 0-7
2,RNA1{[moe]([m5C])[sp].[moe](G)p.[moe](T)p.[moe]([m5C])p.[moe]([m5C])p.[moe](A)p.d(T)[sp].d(T)[sp].d(T)[sp].d(T)[sp].d([m5C])[sp].d(T)[sp].d(G)[sp].d(T)[sp].d(G)[sp].d([m5C])[sp].[moe](T)p.[moe](T)[sp].[moe](T)}$$$$ (last 3' nucleoside missing),6.25 score 0-7
3,RNA1{[moe]([m5C])[sp].[moe](G)p.[moe](T)p.[moe]([m5C])p.d([m5C])[sp].d(A)[sp].d(T)[sp].d(T)[sp].d(T)[sp].d(T)[sp].d([m5C])[sp].d(T)[sp].d(G)[sp].d(T)[sp].[moe](G)p.[moe]([m5C])p.[moe](T)p.[moe](T)[sp].[moe](T)}$$$$ (last 3' nucleoside missing),3 score 0-7
4,RNA1{[moe]([m5C])[sp].[moe](G)p.[moe](T)p.d([m5C])[sp].d([m5C])[sp].d(A)[sp].d(T)[sp].d(T)[sp].d(T)[sp].d(T)[sp].d([m5C])[sp].d(T)[sp].d(G)[sp].[moe](T)p.[moe](G)p.[moe]([m5C])p.[moe](T)p.[moe](T)[sp].[moe](T)}$$$$ (last 3' nucleoside missing),0 score 0-7
5,RNA1{[moe]([m5C])[sp].[moe](T)[sp].[moe](A)p.[moe](T)p.[moe](G)p.[moe](T)p.[moe](T)p.d(T)[sp].d(T)[sp].d([m5C])[sp].d([m5C])[sp].d(A)[sp].d(G)[sp].d(T)[sp].d(G)[sp].d([m5C])[sp].d([m5C])[sp].[moe]([m5C])p.[moe](A)}$$$$ (last 3' nucleoside missing),4.75 score 0-7
6,RNA1{[moe]([m5C])[sp].[moe](T)[sp].[moe]([m5C])p.[moe](T)p.[moe](A)p.[moe](T)p.[moe](G)p.d(T)[sp].d(T)[sp].d(T)[sp].d(T)[sp].d([m5C])[sp].d([m5C])[sp].d(A)[sp].d(G)[sp].d(T)[sp].d(G)[sp].[moe]([m5C])p.[moe]([m5C])}$$$$ (last 3' nucleoside missing),6 score 0-7
7,RNA1{[moe]([m5C])[sp].[moe](T)p.[moe](A)p.[moe](G)p.[moe](T)[sp].d(A)[sp].d(A)[sp].d(G)[sp].d(A)[sp].d(A)[sp].d([m5C])[sp].d(T)[sp].d(T)[sp].d(A)[sp].d(T)[sp].[moe]([m5C])p.[moe]([m5C])p.[moe]([m5C])[sp].[moe](A)}$$$$ (last 3' nucleoside missing),0 score 0-7
8,RNA1{[moe]([m5C])[sp].[moe](T)p.[moe](A)p.[moe](T)p.[moe](G)[sp].d(A)[sp].d(T)[sp].d(G)[sp].d(A)[sp].d(T)[sp].d(G)[sp].d(G)[sp].d(T)[sp].d(G)[sp].d([m5C])[sp].[moe](T)p.[moe](T)p.[moe](T)[sp].[moe]([m5C])}$$$$ (last 3' nucleoside missing),6 score 0-7
9,RNA1{[moe]([m5C])[sp].[moe](T)p.[moe](A)p.[moe](T)p.[moe](G)[sp].d(T)[sp].d(T)[sp].d(T)[sp].d(T)[sp].d([m5C])[sp].d([m5C])[sp].d(A)[sp].d(G)[sp].[moe](T)p.[moe](G)p.[moe]([m5C])[sp].[moe]([m5C])}$$$$ (last 3' nucleoside missing),0 score 0-7
10,RNA1{[moe]([m5C])[sp].[moe](T)p.[moe](A)p.[moe](T)p.[moe](G)[sp].d(T)[sp].d(T)[sp].d(T)[sp].d(T)[sp].d([m5C])[sp].d([m5C])[sp].d(A)[sp].d(G)[sp].d(T)[sp].d(G)[sp].[moe]([m5C])p.[moe]([m5C])p.[moe]([m5C])[sp].[moe](A)}$$$$ (last 3' nucleoside missing),3 score 0-7
11,RNA1{[moe]([m5C])[sp].[moe](T)p.[moe](A)p.[moe](T)p.[moe](G)p.[moe](T)p.d(T)[sp].d(T)[sp].d(T)[sp].d([m5C])[sp].d([m5C])[sp].d(A)[sp].d(G)[sp].d(T)[sp].d(G)[sp].d([m5C])[sp].[moe]([m5C])p.[moe]([m5C])[sp].[moe](A)}$$$$ (last 3' nucleoside missing),3.75 score 0-7
12,RNA1{[moe]([m5C])[sp].[moe](T)p.[moe](A)p.[moe](T)p.[moe](G)p.d(T)[sp].d(T)[sp].d(T)[sp].d(T)[sp].d([m5C])[sp].d([m5C])[sp].d(A)[sp].d(G)[sp].d(T)[sp].[moe](G)[sp].[moe]([m5C])p.[moe]([m5C])p.[moe]([m5C])}$$$$ (last 3' nucleoside missing),0.75 score 0-7
13,RNA1{[moe]([m5C])[sp].[moe](T)p.[moe](A)p.[moe](T)p.[moe](G)p.d(T)[sp].d(T)[sp].d(T)[sp].d(T)[sp].d([m5C])[sp].d([m5C])[sp].d(A)[sp].d(G)[sp].d(T)[sp].[moe](G)p.[moe]([m5C])p.[moe]([m5C])[sp].[moe]([m5C])}$$$$ (last 3' nucleoside missing),1 score 0-7
14,RNA1{[moe]([m5C])[sp].[moe](T)p.[moe](A)p.[moe](T)p.d(G)[sp].d(T)[sp].d(T)[sp].d(T)[sp].d(T)[sp].d([m5C])[sp].d([m5C])[sp].d(A)[sp].d(G)[sp].d(T)[sp].[moe](G)p.[moe]([m5C])p.[moe]([m5C])p.[moe]([m5C])[sp].[moe](A)}$$$$ (last 3' nucleoside missing),1.25 score 0-7
15,RNA1{[moe]([m5C])[sp].[moe](T)p.[moe](A)p.d(T)[sp].d(G)[sp].d(T)[sp].d(T)[sp].d(T)[sp].d(T)[sp].d([m5C])[sp].d([m5C])[sp].d(A)[sp].d(G)[sp].[moe](T)p.[moe](G)p.[moe]([m5C])p.[moe]([m5C])p.[moe]([m5C])[sp].[moe](A)}$$$$ (last 3' nucleoside missing),0.25 score 0-7
16,RNA1{[moe]([m5C])[sp].[moe](T)p.[moe](G)p.[moe](G)p.[moe](T)[sp].d(G)[sp].d(A)[sp].d(T)[sp].d(T)[sp].d(T)[sp].d(T)[sp].d(T)[sp].d(T)[sp].d([m5C])[sp].d([m5C])[sp].[moe](T)p.[moe](T)p.[moe](T)[sp].[moe]([m5C])}$$$$ (last 3' nucleoside missing),0 score 0-7
17,RNA1{[moe]([m5C])[sp].[moe](T)p.[moe](G)p.[moe](T)p.[moe](T)[sp].d(A)[sp].d(T)[sp].d(G)[sp].d(T)[sp].d(T)[sp].d(A)[sp].d(T)[sp].d(T)[sp].d(A)[sp].d(T)[sp].[moe](T)p.[moe](G)p.[moe](T)[sp].[moe](T)}$$$$ (last 3' nucleoside missing),3.75 score 0-7
18,RNA1{[moe]([m5C])[sp].[moe](T)p.[moe](G)p.[moe](T)p.[moe](T)[sp].d(G)[sp].d([m5C])[sp].d(A)[sp].d([m5C])[sp].d(T)[sp].d(A)[sp].d(A)[sp].d(G)[sp].d(T)[sp].d([m5C])[sp].[moe]([m5C])p.[moe](A)p.[moe](A)[sp].[moe](A)}$$$$ (last 3' nucleoside missing),1 score 0-7
19,RNA1{[moe]([m5C])[sp].[moe](T)p.[moe](G)p.[moe](T)p.[moe]([m5C])[sp].d(A)[sp].d(T)[sp].d([m5C])[sp].d(T)[sp].d([m5C])[sp].d([m5C])[sp].d(A)[sp].d(A)[sp].d([m5C])[sp].d([m5C])[sp].[moe](T)p.[moe](A)p.[moe](A)[sp].[moe](G)}$$$$ (last 3' nucleoside missing),1 score 0-7
20,RNA1{[moe]([m5C])[sp].[moe](T)p.[moe](G)p.[moe]([m5C])p.[moe]([m5C])[sp].d(T)[sp].d(T)[sp].d(A)[sp].d(A)[sp].d(T)[sp].d(T)[sp].d(A)[sp].d([m5C])[sp].d([m5C])[sp].d(T)[sp].[moe](A)p.[moe](T)p.[moe](A)[sp].[moe](G)}$$$$ (last 3' nucleoside missing),0.25 score 0-7
21,RNA1{[moe]([m5C])[sp].[moe](T)p.[moe](T)p.[moe](A)p.[moe](A)[sp].d(T)[sp].d(T)[sp].d(A)[sp].d(G)[sp].d(T)[sp].d(T)[sp].d(A)[sp].d([m5C])[sp].d(A)[sp].d(T)[sp].[moe]([m5C])p.[moe](G)p.[moe](G)[sp].[moe](G)}$$$$ (last 3' nucleoside missing),4.5 score 0-7
22,RNA1{[moe]([m5C])[sp].[moe](T)p.[moe](T)p.[moe](A)p.[moe](T)[sp].d(T)[sp].d(A)[sp].d(T)[sp].d(T)[sp].d([m5C])[sp].d(A)[sp].d(T)[sp].d(G)[sp].d(T)[sp].d(T)[sp].[moe]([m5C])p.[moe](T)p.[moe]([m5C])[sp].[moe]([m5C])}$$$$ (last 3' nucleoside missing),1.25 score 0-7
23,RNA1{[moe]([m5C])[sp].[moe](T)p.[moe](T)p.[moe](A)p.[moe](T)p.d(T)[sp].d(A)[sp].d(T)[sp].d(T)[sp].d([m5C])[sp].d(A)[sp].d(T)[sp].d(G)[sp].d(T)[sp].[moe](T)p.[moe]([m5C])p.[moe](T)[sp].[moe]([m5C])}$$$$ (last 3' nucleoside missing),0 score 0-7
24,RNA1{[moe]([m5C])[sp].[moe](T)p.[moe](T)p.[moe](A)p.[moe]([m5C])[sp].d(T)[sp].d([m5C])[sp].d(G)[sp].d(G)[sp].d([m5C])[sp].d(T)[sp].d(T)[sp].d(G)[sp].d(T)[sp].d(T)[sp].[moe]([m5C])p.[moe]([m5C])p.[moe](A)[sp].[moe]([m5C])}$$$$ (last 3' nucleoside missing),0 score 0-7
25,RNA1{[moe]([m5C])[sp].[moe](T)p.[moe](T)p.[moe](A)p.[moe]([m5C])p.d(T)[sp].d([m5C])[sp].d(G)[sp].d(G)[sp].d([m5C])[sp].d(T)[sp].d(T)[sp].d(G)[sp].d(T)[sp].[moe](T)p.[moe]([m5C])p.[moe]([m5C])[sp].[moe](A)}$$$$ (last 3' nucleoside missing),1.75 score 0-7
26,RNA1{[moe]([m5C])[sp].[moe](T)p.[moe](T)p.[moe](T)p.[moe](T)[sp].d([m5C])[sp].d(T)[sp].d(T)[sp].d(T)[sp].d(G)[sp].d([m5C])[sp].d(A)[sp].d([m5C])[sp].d(A)[sp].d([m5C])[sp].[moe](T)p.[moe](G)p.[moe](A)[sp].[moe]([m5C])}$$$$ (last 3' nucleoside missing),4 score 0-7
